Data taken from patent publication US20240114902A1, “COMPOSITIONS AND METHODS FOR DETERRING OVIPOSITION BY FRUIT FLIES” (The United States of America, as represented by The …, priority 2022, published 2024).

Assays:
Assay type in all cases: in vivo
Zeugodacus cucurbitae = test: Z. cucurbitae two-choice oviposition bioassay on pumpkin juice-infused agar; design: key to Behavioral activity (Z. cucurbitae oviposition group): Negative: “negative” (i.e., oviposition reduced); Neutral: “neutral” (i.e., no effect on oviposition); Positive: “positive” (i.e., oviposition increased); details: for Behavioral activity (Z. cucurbitae oviposition group): individual CFFA component; for Z. cucurbitae oviposition reduction vs control agar: individual compound, 20 mg dose
Protocol: Oviposition bioassays were conducted with mated female flies, using pumpkin juice-infused agar as an oviposition substrate. A small petri dish (60×15 mm) filled with 10 mL of 1% agar mixed in pumpkin juice was used as an oviposition substrate. The agar plates were surface-treated either with 200 μL of ethanol or 200 μL of CFFA in one of 4 doses tested (20, 2, 0.2, and 0.02 mg/200 μL of ethanol), placed into a fume hood for 10 minutes for solvent evaporation prior to use in bioassays, and positioned upside-down (i.e. treated side down) on top of the 30×30×30 cm (W×L×H) screened cage 17 cm apart from each other (i.e. one each of control and CFFA treated), allowing 20 female flies (14 to 18 day-old) to oviposit on pumpkin juice agar from the bottom through the cage screen for 24 hours. Each cage was provided with a ball of water-saturated cotton, sugar, and protein hydrolysate in separate 30 mL deli cups and two oviposition substrates-one treated with CFFA diluted in ethanol and the other treated with the ethanol control. After 24 hours, Z. cucurbitae eggs in the pumpkin agar were gently separated from the agar in water and the number of eggs were individually counted. The experiment was replicated five times per treatment. CFFA was not an effective oviposition deterrent for Z. cucurbitae which is contrary to our previous work on B. dorsalis (Roh et al., 2023a). […] CFFA components were categorized into three groups “negative” (i.e., oviposition reduced), “neutral” (i.e., no effect on oviposition), and “positive” (i.e., oviposition increased) based on bioassay outcome. Using these categories, further formulations were made to determine key bioactive CFFA components in terms of oviposition deterrence on Z. cucurbitae at the equivalent ratios and concentrations of each component found in CFFA (Zhu et al. 2018). The approach involved testing the bioactivity of the negative-component blend (4c blend) for oviposition deterrence at three different doses (2, 0.2, and 0.02 mg CFFA equivalent/agar), compared with ethanol control. Further, neutral compound is added to the negative blend i.e., ‘negative+neutral’ component blend (5c blend) to identify key compounds for oviposition deterrence. The experiment was replicated five times per treatment.

Drosophila suzukii (SWD) [1] = test: SWD laboratory two-choice oviposition bioassay on raspberries; design: key to Behavioral activity (SWD oviposition group): Negative: “SWD negative” compounds (i.e., SWD oviposition was reduced); Neutral: “SWD neutral” compounds (i.e., no effect on oviposition); details: for Behavioral activity (SWD oviposition group): individual CFA component; for Behavioral activity (SWD oviposition group) / effect on SWD oviposition vs control / eggs oviposited among all treated raspberries: two-choice; for reduced SWD oviposition / SWD oviposition deterrence / effect on SWD oviposition vs control / eggs oviposited among all treated raspberries: individual compound; for reduced SWD oviposition: 0.2 mg dose; for SWD oviposition deterrence: 2 mg dose; for effect on SWD oviposition vs control / eggs oviposited among all treated raspberries: 20 mg dose
Protocol: Laboratory choice test 1 Oviposition bioassays were conducted at USDA-ARS in Hilo, Hawaii using a laboratory two-choice cage experimental set-up with organic raspberries purchased from a local grocery as an oviposition substrate. For all laboratory assays listed below, the receptacles of the raspberries were stuffed with cotton to prevent flies from ovipositing on the interior of the fruit as described previously in Cha D H et al. (2021, supra). The two-choice oviposition bioassay was conducted over 24 hours in screened cages (30 cm W×30 cm L×30 cm H; BugDorm-2120 Insect tent; shop.bugdorm.com) with 30 female and 10 male SWD (7-8 days old) released per cage. Each cage was provided with cotton moistened with water in a 20 mL deli cup and two 30 mL deli cups; one with two raspberries treated with CFA diluted in hexane and the other with two raspberries treated with hexane only. Each raspberry was surface-treated either with 200 μL of hexane or 200 μL of CFA in one of three doses (20, 2, or 0.2 mg CFA/200 μL hexane), placed into a fume hood for 10 minutes or until used in the bioassay. The deli cups with the treated berries were positioned in the center of the floor of the screened cage, 17 cm apart from each other. Female flies were allowed to oviposit on the surface of raspberries for 24 hours. At the conclusion of the bioassay, each 30 mL deli cup containing two raspberries was moved into a 600 mL deli cup with a mesh cap, held for 8 days (22.1±1.9° C., 71.7±3.1% RH, 16:8 L:D), when the number of larvae and pupae were counted. The experiment was replicated four times per treatment. Laboratory choice test 2 A series of bioassays were conducted in Hilo, Hawaii to identify key bioactive deterrent components of CFA for SWD using the same two-choice bioassay described above. […] Due to solubility differences, ethanol was used as control and for dilution of C16:0 and C18:0, while hexane was used as control and for dilution of the other six compounds tested. Based on the outcome of these bioassays, the eight free fatty acid components of CFA were grouped into two groups; “SWD negative” compounds (i.e., SWD oviposition was reduced) and “SWD neutral” compounds (i.e., no effect on oviposition), and tested whether the blend of “SWD negative” compounds had the same oviposition deterrence as the CFA at their equivalent concentrations as in CFA (see Table 2). The oviposition deterrence of the blend of “SWD negative” compounds was first compared to hexane at three different doses (20, 2 and 0.2 mg CFA equivalent/raspberry) and subsequently compared to CFA at 2 mg equivalent dose.

Drosophila suzukii (SWD) [2] = test: Field test 2: sentinel raspberries in guava orchard, SWD adults emerged; details: 20 mg CFA equivalent/raspberry, total over replicates
Protocol: Field test 2 The oviposition deterrence of the 2c key-component blend and its two individual components against SWD and non-SWD drosophilids was tested under field conditions. This experiment was conducted in a guava orchard (19° 36′33.6″N, 155° 04′ 12.6″W) located near Hilo, Hawaii. To monitor oviposition, four sentinel organic raspberries purchased from a local grocery were placed (receptacles stuffed with cotton) inside a deli cup (600 mL; Placon, Madison, Wisconsin, USA). Each cup had nine 1 cm diameter holes spaced 3 cm apart along the cup's circumference and 8.5 cm from the bottom, which allowed the drosophilids to enter the cup. The four raspberries in each cup were surface-treated with one of five treatments: 1) 2c blend at 20 mg CFA equivalent/200 μL hexane/raspberry, 2) C8:0 at 20 mg CFA equivalent/200 μL hexane/raspberry, 3) C10:0 at 20 mg CFA equivalent/200 μL hexane/raspberry, 4) CFA at 20 mg/200 μL hexane/raspberry, or 5) 200 μL of hexane control/raspberry. The deli-cup traps were hung in guava trees 1.5 m from the ground with at least 10 m spacing between adjacent traps. […] Raspberries were removed from the traps, placed in rearing cups (600 mL deli cup with organdy cap), held in environmental chamber (22.1±1.9° C., 71.7±3.1% RH, 16:8 L:D), and monitored over a 2-week period. All emerged adults were counted and identified as SWD or non-SWD drosophilids. […]

CCCCCCCC(=O)O [C8:0, caprylic acid]
effect on Z. cucurbitae oviposition (Zeugodacus cucurbitae; 0.02 mg dose): not
effect on Z. cucurbitae oviposition (Zeugodacus cucurbitae; 0.2 mg dose): maintained oviposition deterrence
effect on Z. cucurbitae oviposition (Zeugodacus cucurbitae; 2 mg dose): maintained oviposition deterrence
Behavioral activity (Z. cucurbitae oviposition group) (Zeugodacus cucurbitae): Negative
Z. cucurbitae oviposition reduction vs control agar (Zeugodacus cucurbitae): 100%
Behavioral activity (SWD oviposition group) (Drosophila suzukii (SWD) [1]): Negative
reduced SWD oviposition (Drosophila suzukii (SWD) [1]): not detected
SWD oviposition deterrence (Drosophila suzukii (SWD) [1]): maintained oviposition deterrence
effect on SWD oviposition vs control (Drosophila suzukii (SWD) [1]): almost completely inhibited oviposition
eggs oviposited among all treated raspberries (Drosophila suzukii (SWD) [1]): zero

CCCCCCCCCC(=O)O [C10:0, capric acid]
effect on Z. cucurbitae oviposition (Zeugodacus cucurbitae; 2 mg dose): either lost oviposition deterrence or increased oviposition
Behavioral activity (Z. cucurbitae oviposition group) (Zeugodacus cucurbitae): Negative
Z. cucurbitae oviposition reduction vs control agar (Zeugodacus cucurbitae): 74%
Behavioral activity (SWD oviposition group) (Drosophila suzukii (SWD) [1]): Negative
reduced SWD oviposition (Drosophila suzukii (SWD) [1]): not detected
SWD oviposition deterrence (Drosophila suzukii (SWD) [1]): maintained oviposition deterrence
effect on SWD oviposition vs control (Drosophila suzukii (SWD) [1]): almost completely inhibited oviposition
eggs oviposited among all treated raspberries (Drosophila suzukii (SWD) [1]): one
SWD adults emerging from treated raspberries (Drosophila suzukii (SWD) [2]): 2 SWD
